A short description of the assay: mammalian cell viability loss – absorbance, serum and serum-free conditions, cytotoxicity control for DAGLb inhibitor project, dose response (AID 602337). The note with it: absorbance readout.

Activity calls are given as the source filed them. No rule for the calls is given here.

Four molecules from PubChem BioAssay AID602337 (The Scripps Research Institute Molecular Screening Center, 2012) can be followed below.

What is called CC50 is the concentration giving 50% cytotoxicity. On to `COc1ccccc1-c1ccc(-c2cn(C(=O)N3CCCCC3Cc3ccccc3)nn2)cc1` (stereo not drawn), for which the CC50 is 3.1 µM (with serum) and > 100 µM (inactive) (without serum).

On to `O=C(N1CCCCC1Cc1ccccc1)n1cc(-c2ccc(-c3ccccc3)cc2)nn1` (stereo not drawn), for which the CC50 was 4.2 µM (with serum) and > 100 µM (inactive) (without serum).

As for `COc1ccc(-c2ccc(-c3cn(C(=O)N4CCCCC4c4ccccc4)nn3)cc2)cc1` (stereo not drawn), the CC50 (with serum) was determined as 5.9 µM and the CC50 (without serum) is > 100 µM (inactive).

Turning to `O=C(N1CCCCC1c1ccccc1)n1cc(-c2ccc(-c3ccccc3)cc2)nn1` (stereo not drawn), the CC50 is, setting by setting: (with serum) > 50 µM (inactive); (without serum) > 100 µM (inactive).
